Assay results: patent US20230111310A1, “CARBOXYLIC ACID DERIVATIVE-SUBSTITUTED IMINO ARYL COMPOUND, PREPARATION METHOD THEREFOR, HERBICIDAL COMPOSITION AND USE THEREOF” (Qingdao Kingagroot Chemical Compound Co., Ltd., priority 2020, published 2023)

What was measured:
Format in all cases: in vivo
Alopecurus japonicus = test: Weeding effect in post-emergence stage; details: Dose 15 g/ha; level of fresh weight growth control rate
Method in brief: (§1)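 Read-out is growth control rate, counted 3 weeks post-spray and averaged over three repeats. Greenhouse plants at the 2-3 leaf stage received spray-tower application at 500, 250, 125, 60, 30, 15 or 7.5 g/ha, with methyl oleate EC (1.5 liter/ha) and Tween 80 added.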

Digitaria sanguinalis = test: Weeding effect in post-emergence stage; details: Dose 15 g/ha; level of fresh weight growth control rate
Method in brief: as §1

Eleusine indica = test: Weeding effect in post-emergence stage; details: Dose 15 g/ha; level of fresh weight growth control rate
Method in brief: as §1

Setaria viridis [1] = test: Weeding effect in post-emergence stage; details: Dose 15 g/ha; level of fresh weight growth control rate
Method in brief: as §1

Abutilon theophrasti [2] = test: Weeding effect in post-emergence stage; details: Dose 15 g/ha; level of fresh weight growth control rate
Method in brief: as §1

Peanut = test: Pre-emergence stage, crop selectivity; details: 30 g/ha, 4 weeks
Protocol: (§2) The activity level criteria for plant damage (i.e., growth control rate) are as follows:
(§3) The aforementioned seeds of monocotyledonous and dicotyledonous weeds and main crops were put into a plastic pot loaded with soil and covered with 0.5-2 cm soil. The test compounds of the present invention was dissolved with acetone, then added with tween 80, diluted by a certain amount of water to reach a certain concentration, and sprayed immediately after sowing. The obtained seeds were incubated for 4 weeks in the greenhouse after spraying and the test results were observed. It was observed that the herbicide mostly had excellent effect at the application rate of 500, 250, 125, 60, 30, 15, 7.5 g/ha, especially to weeds such as Echinochloa crusgalli. Digitaria sanguinalis and Abutilon theophrasti, etc. And many compounds had good selectivity for corn, cotton, wheat, rice, soybean, and peanut etc. In addition, evaluate the weed control effect with the above activity standard level.

Soybeans = test: Pre-emergence stage, crop selectivity; details: 30 g/ha, 4 weeks
Protocol: as §2, §3

corn = test: Pre-emergence stage, crop selectivity; details: 30 g/ha, 4 weeks
Protocol: as §2, §3

cotton = test: Pre-emergence stage, crop selectivity; details: 30 g/ha, 4 weeks
Protocol: as §2, §3

Echinochloa crusgalli = test: Weeding effect in post-emergence stage; details: Dose 15 g/ha; level of fresh weight growth control rate
Method in brief: as §1

Capsella bursa-pastoris = test: Weeding effect in pre-emergence stage; details: 30 g/ha, 4 weeks
Protocol: as §2, §3

Descurainia sophia = test: Weeding effect in pre-emergence stage; details: 30 g/ha, 4 weeks
Protocol: as §2, §3

Veronica didyma Tenore = test: Weeding effect in pre-emergence stage; details: 30 g/ha, 4 weeks
Protocol: as §2, §3

Amaranthus retroflexus = test: Weeding effect in pre-emergence stage; details: 30 g/ha, 4 weeks
Protocol: as §2, §3

Setaria viridis [3] = test: Weeding effect in pre-emergence stage; details: 30 g/ha, 4 weeks
Protocol: as §2, §3

Abutilon theophrasti [4] = test: Weeding effect in pre-emergence stage; details: 30 g/ha, 4 weeks
Protocol: as §2, §3

Structure (SMILES)	Weeding effect in post-emergence stage, Alopecurus japonicus (Alopecurus japonicus)	Weeding effect in post-emergence stage, Digitaria sanguinalis (Digitaria sanguinalis)	Weeding effect in post-emergence stage, Eleusine indica (Eleusine indica)	Weeding effect in post-emergence stage, Setaria viridis (Setaria viridis [1])	Weeding effect in post-emergence stage, Abutilon theophrasti (Abutilon theophrasti [2])	plant damage level Peanut (Peanut)	plant damage level Soybeans (Soybeans)	plant damage level Corn (corn)	plant damage level Cotton (cotton)	Weeding effect in post-emergence stage, Echinochloa crusgalli (Echinochloa crusgalli)	activity level (growth control rate) Capsella bursa-pastoris (Capsella bursa-pastoris)	activity level (growth control rate) Descurainia sophia (Descurainia sophia)	activity level (growth control rate) Veronica didyma Tenore (Veronica didyma Tenore)	activity level (growth control rate) Amaranthus retroflexus (Amaranthus retroflexus)	activity level (growth control rate) Setaria viridis (Setaria viridis [3])	activity level (growth control rate) Abutilon theophrasti (Abutilon theophrasti [4])
CCOC(=O)[C@@H](C)O/N=C/c1cc(-n2c(=O)n(C)c(=S)n(C)c2=O)c(F)cc1Cl [2(R)]	5 (Level 5: growth control rate is above 85%)	5 (Level 5: growth control rate is above 85%)	5 (Level 5: growth control rate is above 85%)	5 (Level 5: growth control rate is above 85%)	5 (Level 5: growth control rate is above 85%)	0 (Level 0: growth control rate is less than 5%)	0 (Level 0: growth control rate is less than 5%)	0 (Level 0: growth control rate is less than 5%)	0 (Level 0: growth control rate is less than 5%)	5 (Level 5: growth control rate is above 85%)	5 (Level 5: growth control rate is above 85%)	5 (Level 5: growth control rate is above 85%)	5 (Level 5: growth control rate is above 85%)	5 (Level 5: growth control rate is above 85%)	5 (Level 5: growth control rate is above 85%)	5 (Level 5: growth control rate is above 85%)
CCCOC(=O)[C@@H](C)O/N=C/c1cc(-n2c(=O)cc(C(F)(F)F)n(C)c2=O)c(F)cc1Cl [198(R)]	5 (Level 5: growth control rate is above 85%)	5 (Level 5: growth control rate is above 85%)	5 (Level 5: growth control rate is above 85%)	5 (Level 5: growth control rate is above 85%)	5 (Level 5: growth control rate is above 85%)	0 (Level 0: growth control rate is less than 5%)	0 (Level 0: growth control rate is less than 5%)	0 (Level 0: growth control rate is less than 5%)	0 (Level 0: growth control rate is less than 5%)	5 (Level 5: growth control rate is above 85%)	5 (Level 5: growth control rate is above 85%)	5 (Level 5: growth control rate is above 85%)	5 (Level 5: growth control rate is above 85%)	5 (Level 5: growth control rate is above 85%)	5 (Level 5: growth control rate is above 85%)	5 (Level 5: growth control rate is above 85%)
CC(C)OC(=O)[C@@H](C)O/N=C/c1cc(-n2c(=O)cc(C(F)(F)F)n(C)c2=O)c(F)cc1Cl [199(R)]	5 (Level 5: growth control rate is above 85%)	5 (Level 5: growth control rate is above 85%)	5 (Level 5: growth control rate is above 85%)	5 (Level 5: growth control rate is above 85%)	5 (Level 5: growth control rate is above 85%)	0 (Level 0: growth control rate is less than 5%)	0 (Level 0: growth control rate is less than 5%)	0 (Level 0: growth control rate is less than 5%)	0 (Level 0: growth control rate is less than 5%)	5 (Level 5: growth control rate is above 85%)	5 (Level 5: growth control rate is above 85%)	5 (Level 5: growth control rate is above 85%)	5 (Level 5: growth control rate is above 85%)	5 (Level 5: growth control rate is above 85%)	5 (Level 5: growth control rate is above 85%)	5 (Level 5: growth control rate is above 85%)
C=CCOC(=O)[C@@H](C)O/N=C/c1cc(-n2c(=O)cc(C(F)(F)F)n(C)c2=O)c(F)cc1Cl [208(R)]	5 (Level 5: growth control rate is above 85%)	5 (Level 5: growth control rate is above 85%)	5 (Level 5: growth control rate is above 85%)	5 (Level 5: growth control rate is above 85%)	5 (Level 5: growth control rate is above 85%)	0 (Level 0: growth control rate is less than 5%)	0 (Level 0: growth control rate is less than 5%)	0 (Level 0: growth control rate is less than 5%)	0 (Level 0: growth control rate is less than 5%)	5 (Level 5: growth control rate is above 85%)	5 (Level 5: growth control rate is above 85%)	5 (Level 5: growth control rate is above 85%)	5 (Level 5: growth control rate is above 85%)	5 (Level 5: growth control rate is above 85%)	5 (Level 5: growth control rate is above 85%)	5 (Level 5: growth control rate is above 85%)
C[C@@H](O/N=C/c1cc(-n2c(=O)cc(C(F)(F)F)n(C)c2=O)c(F)cc1Cl)C(=O)OCCF [216(R)]	4 (Level 4: growth control rate is greater than or equal to 60% and less than 85%)	5 (Level 5: growth control rate is above 85%)	5 (Level 5: growth control rate is above 85%)	5 (Level 5: growth control rate is above 85%)	5 (Level 5: growth control rate is above 85%)	0 (Level 0: growth control rate is less than 5%)	0 (Level 0: growth control rate is less than 5%)	0 (Level 0: growth control rate is less than 5%)	0 (Level 0: growth control rate is less than 5%)	5 (Level 5: growth control rate is above 85%)	5 (Level 5: growth control rate is above 85%)	5 (Level 5: growth control rate is above 85%)	5 (Level 5: growth control rate is above 85%)	5 (Level 5: growth control rate is above 85%)	5 (Level 5: growth control rate is above 85%)	5 (Level 5: growth control rate is above 85%)
